# Measured values from patent US20190183910A1, “ENHANCING DNA REPAIR AND PREVENTING AGING AND ITS CONSEQUENCES IN REPRODUCTIVE AND OTHER CELLS” (NEW YORK MEDICAL COLLEGE, priority 2016, published 2019).
# Where “and” joins values, the source holds several entries; their conditions need not be identical. Equal values may be shown once.
# How the values were obtained:
# human sperm = assay: Alkaline comet assay on human sperm; assay type: cell-based; settings: n=3, mean±SEM
# male germ cells = settings: S1P treatment to mouse testes (Otala et al., 2004); cited from earlier work
# ATM = assay: qRT-PCR DNA DSB repair gene expression in mouse sperm lysates, ATM; assay type: cell-based
# Protocol: (§1) Treatment was performed with genotoxic stress (1 mM H2O2), S1P (200 μM), and S1P with genotoxic stress and control in culture for one hour. Also, the use of an ATM inhibitor was utilized (10 μM) (KU-55593, Abcam) (Li et al., 2014). We assessed DNA damage, apoptosis, and chromatin integrity. We also studied the DNA DSB repair gene expression by qRT-PCR in sperm lysates.
# (§2) Sperm pellets previously snap-frozen in PBS were thawed. RNA was extracted using the trizol method (Rio et al., 2010). The quality and quantity of the RNA were measured with NanoDrop 2000 from Thermo Scientific. RNA (2 μg) from each sample was taken for reverse transcription with dTVN and N9 primers and SuperScript III reverse transcriptase, all procured from Invitrogen. The resulting cDNA was used to perform real-time qPCR with SYBR Green on an Applied Biosystems 7900HT Real-Time PCR machine was used. To determine the relative expression of various DNA repair genes in mouse sperm, we used the ΔΔCt method, which makes use of the expression of housekeeping genes. GAPDH was used as housekeeping gene. Primers were procured from Integrated DNA technologies (IDT) (Table 3).
# DMC1 = assay: qRT-PCR DNA DSB repair gene expression in mouse sperm lysates, DMC1; assay type: cell-based
# Protocol: as §1, §2
# mouse sperm = assay: DNA DSBs by γH2AX expression in S1P-treated mouse sperm; assay type: cell-based; settings: for DNA DSBs as reported by γH2AX expression: culture 1 hour, n=9, mean±SEM
# Protocol: as §1
# DNA damage assessment of testicular tissue from mice utilized a Ser139 phosphorylation-specific γH2AX antibody (IHC-00059; Bethyl Laboratories) performed with enzymatic diaminobenzidine staining (Vector). Histone H2AX, one of the several variants of the nucleosome core histone H2A, becomes phosphorylated on Ser139 in response to DSBs (γH2AX). Within seconds of DSB formation, γH2AX foci are formed at the site of DNA damage, which can be detected by confocal microscopy or immunohistochemistry to quantify DNA damage. Foci of γH2AX represent DDR in a 1:1 manner, enabling sensitive quantification of potential DSBs (Katsube et al., 2014). Primordial follicles containing a γH2AX-positive oocyte were considered to be DNA-damaged (Rogakou et al., 1998). Sperm were assessed for DNA damage with antibody to γH2AX (613402; BioLegend) and secondary antibody Alexa Fluor 488 (A-11029; Invitrogen), followed by nuclear counterstaining with diamidino-2-phenylindole (DAPI; Fisher Scientific). Immunofluorescence for SD sperm samples was measured by FACScan flow cytometer (Becton-Dickinson) or laser scanning cytometry (Halicka et al., 2008).
# MRE11 = assay: qRT-PCR DNA DSB repair gene expression in mouse sperm lysates, MRE11; assay type: cell-based
# Protocol: as §1, §2
# [1] = S1P treatment, no ATM inhibitor
# [2] = S1P with genotoxic stress, with ATM inhibitor, n=8, mean±SEM
smiles,measurement,setting,value
"CCCCCCCCCCCCC/C=C/[C@@H](O)[C@@H](N)COP(=O)(O)O [S1P, sphingosine 1 phosphate]","percent tail DNA, alkaline comet","human sperm; S1P with H2O2, with ATM inhibitor",26.1±1.19%
same,"percent tail DNA, alkaline comet","human sperm; S1P with H2O2, without ATM inhibitor",13.2±0.51% and 13.2±1.25%
same,male germ cell loss by radiation-induced injury,male germ cells,decreased
same,ATM expression (qRT-PCR),ATM; [1],no significant difference
same,ATM gene expression (qRT-PCR),ATM; [2],0.042±0.011
same,DMC1 expression (qRT-PCR),"DMC1; S1P alone, with ATM inhibitor, n=8, mean±SEM",0.027±0.014
same,DMC1 expression (qRT-PCR),"DMC1; S1P in the presence of genotoxic stress, n=9, mean±SEM",0.029±0.04
same,DMC1 expression (qRT-PCR),DMC1; [2],0.0035±0.005
same,DNA DSBs as reported by γH2AX expression,mouse sperm; S1P (200 μM) in the presence of genotoxic stress (1 mM H2O2),8.29±1.45
same,DNA DSBs as reported by γH2AX expression,mouse sperm; S1P alone (200 μM),8.94±1.48
same,DNA integrity (protective effect of S1P),"mouse sperm; in the presence of an ATM inhibitor (10 μM KU-55593), n=9",ATM inhibition reversed the protective effects
same,MRE11 expression (qRT-PCR),MRE11; S1P treatment with ATM inhibitor,no significant difference
same,MRE11 expression (qRT-PCR),MRE11; [1],no significant difference
